Measured values from US10485235B2, “Aryloxypyrimidinyl ethers as herbicides” (FMC Corporation, priority 2015, dated 2019).

Legend:
Format in all cases: in vivo
[1] = tested on: ragweed (common ragweed, Ambrosia elatior); assay: Test A preemergence, ragweed; settings: Preemergence, 0 to 100 scale (0 no effect, 100 complete control)
Method in brief: (§1)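 Ratings run 0–100, where 100 is complete control, and were scored visually against untreated plants about 10 days after treatment under greenhouse conditions. Formulated chemicals were sprayed either onto the soil surface after seeding (preemergence) or onto one- to two-leaf seedlings 2–10 cm high (postemergence).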

[2] = tested on: galium (catchweed bedstraw, Galium aparine); assay: Test A postemergence, galium; settings: postemergence, 0 to 100 scale, 0 is no effect, 100 is complete control, approximately 10 days
Method in brief: as §1

[3] = tested on: barnyardgrass (Echinochloa crus-galli); assay: Test A preemergence, barnyardgrass; settings: Preemergence, 0 to 100 scale (0 no effect, 100 complete control)
Method in brief: as §1

[4] = tested on: ragweed (common ragweed, Ambrosia elatior); assay: Test A postemergence, ragweed; settings: postemergence, 0 to 100 scale, 0 is no effect, 100 is complete control, approximately 10 days
Method in brief: as §1

[5] = tested on: pigweed (Amaranthus retroflexus); assay: Test A preemergence, pigweed; settings: Preemergence, 0 to 100 scale (0 no effect, 100 complete control)
Method in brief: as §1

corn (Zea mays) = assay: Test A postemergence, corn; settings: postemergence, 0 to 100 scale, 0 is no effect, 100 is complete control, approximately 10 days
Method in brief: as §1

kochia (Kochia scoparia) [6] = assay: Test A preemergence, kochia; settings: Preemergence, 0 to 100 scale (0 no effect, 100 complete control)
Method in brief: as §1

[7] = tested on: pigweed (Amaranthus retroflexus); assay: Test A postemergence, pigweed; settings: postemergence, 0 to 100 scale, 0 is no effect, 100 is complete control, approximately 10 days
Method in brief: as §1

[8] = tested on: foxtail, giant (giant foxtail, Setaria faberii); assay: Test A preemergence, giant foxtail; settings: Preemergence, 0 to 100 scale (0 no effect, 100 complete control)
Method in brief: as §1

rice (Oryza sativa) = assay: Test B flooded paddy test, rice; settings: 250 g ai/ha, Flood; visual rating after 13 to 15 days; scale 0 to 100, 0 is no effect, 100 is complete control
Method in brief: (§2)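 Plants grown to the 2-leaf stage; pots flooded to 3 cm above soil and compounds applied directly into the paddy water, depth held throughout. After 13 to 15 days in the greenhouse, injury was rated visually against untreated controls on a 0–100 scale (0 no effect, 100 complete control).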

[9] = tested on: barnyardgrass (Echinochloa crus-galli); assay: Test A postemergence, barnyardgrass; settings: postemergence, 0 to 100 scale, 0 is no effect, 100 is complete control, approximately 10 days
Method in brief: as §1

kochia (Kochia scoparia) [10] = assay: Test A postemergence, kochia; settings: postemergence, 0 to 100 scale, 0 is no effect, 100 is complete control, approximately 10 days
Method in brief: as §1

[11] = tested on: foxtail, giant (giant foxtail, Setaria faberii); assay: Test A postemergence, giant foxtail; settings: postemergence, 0 to 100 scale, 0 is no effect, 100 is complete control, approximately 10 days
Method in brief: as §1

[12] = tested on: wheat (Triticum aestivum); assay: Test A postemergence, wheat; settings: postemergence, 0 to 100 scale, 0 is no effect, 100 is complete control, approximately 10 days
Method in brief: as §1

[13] = tested on: sedge, umbrella (small-flower umbrella sedge, Cyperus difformis); assay: Test B flooded paddy test, umbrella sedge; settings: 250 g ai/ha, Flood; visual rating after 13 to 15 days; scale 0 to 100, 0 is no effect, 100 is complete control
Method in brief: as §2

[14] = tested on: barnyardgrass (Echinochloa crus-galli); assay: Test B flooded paddy test, barnyardgrass; settings: 250 g ai/ha, Flood; visual rating after 13 to 15 days; scale 0 to 100, 0 is no effect, 100 is complete control
Method in brief: as §2

[15] = tested on: blackgrass (Alopecurus myosuroides); assay: Test A postemergence, blackgrass; settings: postemergence, 0 to 100 scale, 0 is no effect, 100 is complete control, approximately 10 days
Method in brief: as §1

[16] = tested on: ryegrass, Italian (Italian ryegrass, Lolium multiflorum); assay: Test A preemergence, Italian ryegrass; settings: Preemergence, 0 to 100 scale (0 no effect, 100 complete control)
Method in brief: as §1

[17] = tested on: ducksalad (Heteranthera limosa); assay: Test B flooded paddy test, ducksalad; settings: 250 g ai/ha, Flood; visual rating after 13 to 15 days; scale 0 to 100, 0 is no effect, 100 is complete control
Method in brief: as §2

[18] = tested on: ryegrass, Italian (Italian ryegrass, Lolium multiflorum); assay: Test A postemergence, Italian ryegrass; settings: postemergence, 0 to 100 scale, 0 is no effect, 100 is complete control, approximately 10 days
Method in brief: as §1

Row | SMILES | Plant response rating, Ragweed ([1]; 125 g ai/ha) | Plant response rating, Galium ([2]; 125 g ai/ha) | Plant response rating, Barnyardgrass ([3]; 125 g ai/ha) | Plant response rating, Ragweed ([4]; 125 g ai/ha) | Plant response rating, Pigweed ([5]; 125 g ai/ha) | Plant response rating, Corn (corn (Zea mays); 125 g ai/ha) | Plant response rating, Kochia (kochia (Kochia scoparia) [6]; 125 g ai/ha) | Plant response rating, Pigweed ([7]; 125 g ai/ha) | Plant response rating, Foxtail, Giant ([8]; 125 g ai/ha) | Plant response rating, Rice (rice (Oryza sativa)) | Plant response rating, Barnyardgrass ([9]; 125 g ai/ha) | Plant response rating, Kochia (kochia (Kochia scoparia) [10]; 125 g ai/ha) | Plant response rating, Foxtail, Giant ([11]; 125 g ai/ha) | Plant response rating, Wheat ([12]; 125 g ai/ha) | Plant response rating, Sedge, Umbrella [13] | Plant response rating, Barnyardgrass [14] | Plant response rating, Blackgrass ([15]; 125 g ai/ha) | Plant response rating, Ryegrass, Italian ([16]; 125 g ai/ha) | Plant response rating, Ducksalad [17] | Plant response rating, Ryegrass, Italian ([18]; 125 g ai/ha) | other results
1 | FC(F)(F)c1ccc(COc2c(Br)cccc2Oc2ncc(Cl)cn2)cc1 [Compound 19] | 0 | 0 | 0 | 10 | 0 | 10 | 0 | 20 | 10 | 0 | 0 | 10 | 0 | 0 | 0 | 0 | 0 | 0 | 0 | 0 | Plant response rating, Ragweed ([1]; 500 g ai/ha): 0; Plant response rating, Galium ([2]; 500 g ai/ha): 30; Plant response rating, Barnyardgrass ([3]; 500 g ai/ha): 60; Plant response rating, Ragweed ([4]; 500 g ai/ha): 20; Plant response rating, Pigweed ([5]; 500 g ai/ha): 0; Plant response rating, Corn (corn (Zea mays); 500 g ai/ha): 30; Plant response rating, Kochia (kochia (Kochia scoparia) [6]; 500 g ai/ha): 0; Plant response rating, Pigweed ([7]; 500 g ai/ha): 100; Plant response rating, Foxtail, Giant ([8]; 500 g ai/ha): 90; Plant response rating, Barnyardgrass ([9]; 500 g ai/ha): 20; Plant response rating, Kochia (kochia (Kochia scoparia) [10]; 500 g ai/ha): 50; Plant response rating, Foxtail, Giant ([11]; 500 g ai/ha): 20; Plant response rating, Wheat ([12]; 500 g ai/ha): 20; Plant response rating, Blackgrass ([15]; 500 g ai/ha): 10; Plant response rating, Ryegrass, Italian ([16]; 500 g ai/ha): 20; Plant response rating, Ryegrass, Italian ([18]; 500 g ai/ha): 0
2 | N#CCCCOc1c(C#N)cccc1Oc1ncc(Cl)cn1 [Compound 22] | 30 | 50 | 20 | 10 | 100 | 20 | 90 | 80 | 90 | 0 | 0 | 90 | 10 | 20 | 0 | 0 | 0 | 0 | 0 | 0 | Plant response rating, Ragweed ([1]; 31 g ai/ha): 10; Plant response rating, Galium ([2]; 31 g ai/ha): 20; Plant response rating, Barnyardgrass ([3]; 31 g ai/ha): 0; Plant response rating, Ragweed ([4]; 31 g ai/ha): 0; Plant response rating, Pigweed ([5]; 31 g ai/ha): 80; Plant response rating, Corn (corn (Zea mays); 31 g ai/ha): 10; Plant response rating, Kochia (kochia (Kochia scoparia) [6]; 31 g ai/ha): 70; Plant response rating, Pigweed ([7]; 31 g ai/ha): 30; Plant response rating, Foxtail, Giant ([8]; 31 g ai/ha): 0; Plant response rating, Barnyardgrass ([9]; 31 g ai/ha): 0; Plant response rating, Kochia (kochia (Kochia scoparia) [10]; 31 g ai/ha): 80; Plant response rating, Foxtail, Giant ([11]; 31 g ai/ha): 0; Plant response rating, Wheat ([12]; 31 g ai/ha): 0; Plant response rating, Blackgrass ([15]; 31 g ai/ha): 0; Plant response rating, Ryegrass, Italian ([16]; 31 g ai/ha): 0; Plant response rating, Ryegrass, Italian ([18]; 31 g ai/ha): 0
